One substance from article PMC7396987, “Biological Activity of Pseudovitamin B12 on Cobalamin-Dependent Methylmalonyl-CoA Mutase and Methionine Synthase in Mammalian Cultured COS-7 Cells” (Molecules, 2020) can be followed below.

This test deals with T1, human MS (hMS; recombinant FLAG-tagged methionine synthase) (Homo sapiens, UniProt Q99707).
T1 construct: gene MTR; full-length ORF from human brain cerebral cortex cDNA in p3xFLAG-Myc-CMV (p3xFLAG-hMS), N-terminal 3xFLAG tag kept; expressed in COS-7 cells, apoenzyme in cell homogenate (low endogenous monkey MS background)
T1 sequence (Q99707 2-1265 limits assumed): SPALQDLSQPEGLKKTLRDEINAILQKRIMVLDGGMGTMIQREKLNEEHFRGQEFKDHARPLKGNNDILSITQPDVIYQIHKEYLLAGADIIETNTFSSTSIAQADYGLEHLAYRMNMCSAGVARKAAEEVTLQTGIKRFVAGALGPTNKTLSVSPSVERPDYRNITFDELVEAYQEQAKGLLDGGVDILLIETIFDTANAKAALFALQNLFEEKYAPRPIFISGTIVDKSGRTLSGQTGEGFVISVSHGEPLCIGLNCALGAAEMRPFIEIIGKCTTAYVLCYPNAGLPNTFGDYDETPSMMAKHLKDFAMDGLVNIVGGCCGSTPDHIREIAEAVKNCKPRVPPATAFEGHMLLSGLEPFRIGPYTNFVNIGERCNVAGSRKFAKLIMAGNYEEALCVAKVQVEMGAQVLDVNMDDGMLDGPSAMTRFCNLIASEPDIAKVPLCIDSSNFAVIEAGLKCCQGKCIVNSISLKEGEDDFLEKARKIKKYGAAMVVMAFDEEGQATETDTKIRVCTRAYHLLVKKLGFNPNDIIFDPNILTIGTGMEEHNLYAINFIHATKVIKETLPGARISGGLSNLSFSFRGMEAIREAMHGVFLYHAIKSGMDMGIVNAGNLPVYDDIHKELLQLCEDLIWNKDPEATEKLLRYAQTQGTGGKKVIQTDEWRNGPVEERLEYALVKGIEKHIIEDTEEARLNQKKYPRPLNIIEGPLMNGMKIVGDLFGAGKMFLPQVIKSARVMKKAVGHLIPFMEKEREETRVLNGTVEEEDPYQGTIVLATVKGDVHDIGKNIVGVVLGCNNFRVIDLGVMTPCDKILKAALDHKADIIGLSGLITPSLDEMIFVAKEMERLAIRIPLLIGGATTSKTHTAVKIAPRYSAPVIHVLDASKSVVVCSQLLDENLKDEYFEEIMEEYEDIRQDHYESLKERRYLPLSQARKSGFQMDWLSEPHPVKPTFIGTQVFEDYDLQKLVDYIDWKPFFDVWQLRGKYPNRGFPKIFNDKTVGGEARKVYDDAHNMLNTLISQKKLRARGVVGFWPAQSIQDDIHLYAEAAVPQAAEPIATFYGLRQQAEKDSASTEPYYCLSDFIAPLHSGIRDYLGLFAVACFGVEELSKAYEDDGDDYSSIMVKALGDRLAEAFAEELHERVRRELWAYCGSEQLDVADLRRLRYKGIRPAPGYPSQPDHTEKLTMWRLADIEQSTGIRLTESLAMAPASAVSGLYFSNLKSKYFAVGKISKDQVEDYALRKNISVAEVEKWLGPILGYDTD
Description: activation of apo-MS in cell homogenate, HPLC activity assay, saturation fit. It counts as biochemical. The settings on record: cobalamin reduced by titanium citrate; substrate 5-methyltetrahydrofolate; homogenate of MS cDNA-transfected COS-7 cells grown without OH-Cbl; read-out: apparent Kd.

With (Ade)OH-Cba [compound 6], the Kd was around 26.3 µM.
